# Source: patent publication US11446384B2, “Agent for targeting heart comprising tannic acid” (Korea Research Institute of Chemical Technology, priority 2018, dated 2022)
# Assays:
# [1] = Size of tannylated SP (particle size analyzer); type: physicochemical; conditions: [SP]/[TA] ratio of 20 or 10
# Protocol: The mixed solutions with the [SP]/[TA] ratios of 20, 10, 5, 1 and 0.5 prepared to produce tannylated SP in Example 2 were observed by naked eye. Then, the size of tannylated SP ([SP]/[TA] ratio=20 and 10, volume=1 mL) was analyzed using a particle size analyzer (Zetasizer nano-ZS, Malvern instrument, UK).
# [2] = system: myocardial ischemia reperfusion (MIR); assay: Infarct size (TTC staining) in MIR animal model after intravenous bFGF; type: in vivo, rats (SD rats); conditions: MIR rats, 28 days after injection
# Protocol: Particularly, rats (SD rats, 8 weeks old, male, 230-270 g) were anesthetized with a mixture of isoflurane (3 cc min^-1), Rompun, xylazine (1 mg kg^-1) and oxygen in an induction chamber. Then, the rats were intubated and a mixture of isoflurane and oxygen was allowed to flow at a rate of 1 cc min^-1. The rat heart was exposed through left thoracotomy, followed by occulusion for 10 minutes. The suture line was quickly loosened to resume blood flow through the left anterior descending artery (LAD). […] Upon completion of the hemodynamic evaluation, the heart was separated and immersed in warm PBS ( 37° C.) to eliminate blood residues. Then, the heart was quickly frozen at -20° C., and the frozen heart was sliced lengthwise approximately 2 mm away the apex. The slice was placed on a cell culture dish, which was treated with 1% TTC (triphenyltetrazolium chloride) dissolved in PBS at 37° C. for 15 minutes. After staining, the heart slice was photographed with a scanner. Then, live tissues stained with red and necrotic tissues non-stained and thus presented as white were distinguished. The size of the infarct area was measured digitally using ImageJ software, and the results are presented as %.
# [3] = system: myocardial ischemia reperfusion (MIR); assay: In vivo hemodynamic evaluation of left ventricular function in MIR animal model; design: species or system rats (SD rats); conditions: MIR rats; for EDP / EDV / ESP / ESV / Ea / HR / SW / Tau: 5 μg i.v., 28 days
# Protocol: Particularly, rats (SD rats, 8 weeks old, male, 230-270 g) were anesthetized with a mixture of isoflurane (3 cc min^-1), Rompun, xylazine (1 mg kg^-1) and oxygen in an induction chamber. Then, the rats were intubated and a mixture of isoflurane and oxygen was allowed to flow at a rate of 1 cc min^-1. The rat heart was exposed through left thoracotomy, followed by occulusion for 10 minutes. The suture line was quickly loosened to resume blood flow through the left anterior descending artery (LAD). […] 28 days after the injection, in vivo hemodynamic evaluation was performed to investigate the left ventricular function using […]500 (Transonic, USA) outputting data to LabScribe data collection software (iWorx/CB Sciences, USA).
# [4] = biological target: T1, elastin (Homo sapiens, UniProt P15502); assay: Turbidimetry binding analysis of TA and elastin; conditions: elastin 0.24 mg/mL, TA 17 mg/mL, 1:1
# T1 sequence (P15502 27-786): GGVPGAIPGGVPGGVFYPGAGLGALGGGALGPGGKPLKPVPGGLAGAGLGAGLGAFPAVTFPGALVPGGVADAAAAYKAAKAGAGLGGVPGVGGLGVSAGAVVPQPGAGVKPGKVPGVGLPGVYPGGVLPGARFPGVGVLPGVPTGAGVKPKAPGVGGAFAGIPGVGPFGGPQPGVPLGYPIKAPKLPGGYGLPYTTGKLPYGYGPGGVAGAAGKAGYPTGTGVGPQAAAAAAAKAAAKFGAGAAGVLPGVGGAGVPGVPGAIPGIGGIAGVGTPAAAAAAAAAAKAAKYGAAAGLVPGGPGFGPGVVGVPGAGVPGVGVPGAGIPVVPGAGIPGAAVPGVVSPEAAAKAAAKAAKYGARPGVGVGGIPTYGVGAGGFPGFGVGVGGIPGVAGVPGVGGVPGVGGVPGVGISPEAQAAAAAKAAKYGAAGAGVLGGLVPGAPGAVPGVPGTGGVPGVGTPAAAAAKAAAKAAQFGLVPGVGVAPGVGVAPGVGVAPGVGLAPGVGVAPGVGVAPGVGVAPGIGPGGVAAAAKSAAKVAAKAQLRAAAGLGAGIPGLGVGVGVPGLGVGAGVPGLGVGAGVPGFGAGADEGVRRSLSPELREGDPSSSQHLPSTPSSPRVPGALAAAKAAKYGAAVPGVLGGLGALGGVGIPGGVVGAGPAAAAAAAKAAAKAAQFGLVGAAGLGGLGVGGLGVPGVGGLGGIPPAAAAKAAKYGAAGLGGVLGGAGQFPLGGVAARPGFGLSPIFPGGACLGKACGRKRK
# Protocol: (§1) For turbidity analysis, each solution of elastin, type I collagen, HS and HA was prepared by diluting them in PBS at the concentration of 0.24 mg/mL. TA (17 mg/mL) was added to each solution at the volume ratio of 1:1, followed by mixing vigorously. Turbidity was measured at 600 nm using UV/vis spectrometer (HP8453, Hewlett-Packard, USA).
# [5] = biological target: T2, type I collagen (Homo sapiens, UniProt P02452+P08123); assay: Turbidimetry binding analysis of TA and type I collagen; conditions: type I collagen 0.24 mg/mL, TA 17 mg/mL, 1:1
# T2 sequence (P02452 162-1218 limits assumed): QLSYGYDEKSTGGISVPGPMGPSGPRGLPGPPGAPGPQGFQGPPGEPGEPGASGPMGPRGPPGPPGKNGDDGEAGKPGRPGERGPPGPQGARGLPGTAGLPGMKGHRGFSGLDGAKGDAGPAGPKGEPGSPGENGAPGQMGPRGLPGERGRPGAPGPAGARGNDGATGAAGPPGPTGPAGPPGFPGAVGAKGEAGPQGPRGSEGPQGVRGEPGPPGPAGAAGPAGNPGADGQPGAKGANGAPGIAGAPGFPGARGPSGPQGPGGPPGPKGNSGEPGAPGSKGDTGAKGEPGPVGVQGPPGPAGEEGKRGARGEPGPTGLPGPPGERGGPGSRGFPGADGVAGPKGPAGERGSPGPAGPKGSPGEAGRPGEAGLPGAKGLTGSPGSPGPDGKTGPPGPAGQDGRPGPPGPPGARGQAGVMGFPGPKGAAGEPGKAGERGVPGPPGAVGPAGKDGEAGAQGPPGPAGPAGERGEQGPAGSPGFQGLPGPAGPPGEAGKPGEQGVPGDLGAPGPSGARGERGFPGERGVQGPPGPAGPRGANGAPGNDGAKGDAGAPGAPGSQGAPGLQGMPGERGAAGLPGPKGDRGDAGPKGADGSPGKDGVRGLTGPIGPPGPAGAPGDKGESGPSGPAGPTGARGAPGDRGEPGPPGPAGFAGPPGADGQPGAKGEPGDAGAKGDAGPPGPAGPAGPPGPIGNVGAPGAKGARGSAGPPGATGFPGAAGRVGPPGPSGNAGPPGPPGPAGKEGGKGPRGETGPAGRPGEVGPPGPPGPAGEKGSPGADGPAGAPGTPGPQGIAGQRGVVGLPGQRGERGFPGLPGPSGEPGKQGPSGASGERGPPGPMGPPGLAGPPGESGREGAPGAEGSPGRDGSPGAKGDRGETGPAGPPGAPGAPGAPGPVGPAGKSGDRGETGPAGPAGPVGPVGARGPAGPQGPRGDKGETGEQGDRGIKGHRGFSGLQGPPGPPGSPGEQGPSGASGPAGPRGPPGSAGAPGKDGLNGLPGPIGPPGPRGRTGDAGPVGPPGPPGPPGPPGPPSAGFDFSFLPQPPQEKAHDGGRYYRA
# T2 sequence (P08123 80-1119 limits assumed): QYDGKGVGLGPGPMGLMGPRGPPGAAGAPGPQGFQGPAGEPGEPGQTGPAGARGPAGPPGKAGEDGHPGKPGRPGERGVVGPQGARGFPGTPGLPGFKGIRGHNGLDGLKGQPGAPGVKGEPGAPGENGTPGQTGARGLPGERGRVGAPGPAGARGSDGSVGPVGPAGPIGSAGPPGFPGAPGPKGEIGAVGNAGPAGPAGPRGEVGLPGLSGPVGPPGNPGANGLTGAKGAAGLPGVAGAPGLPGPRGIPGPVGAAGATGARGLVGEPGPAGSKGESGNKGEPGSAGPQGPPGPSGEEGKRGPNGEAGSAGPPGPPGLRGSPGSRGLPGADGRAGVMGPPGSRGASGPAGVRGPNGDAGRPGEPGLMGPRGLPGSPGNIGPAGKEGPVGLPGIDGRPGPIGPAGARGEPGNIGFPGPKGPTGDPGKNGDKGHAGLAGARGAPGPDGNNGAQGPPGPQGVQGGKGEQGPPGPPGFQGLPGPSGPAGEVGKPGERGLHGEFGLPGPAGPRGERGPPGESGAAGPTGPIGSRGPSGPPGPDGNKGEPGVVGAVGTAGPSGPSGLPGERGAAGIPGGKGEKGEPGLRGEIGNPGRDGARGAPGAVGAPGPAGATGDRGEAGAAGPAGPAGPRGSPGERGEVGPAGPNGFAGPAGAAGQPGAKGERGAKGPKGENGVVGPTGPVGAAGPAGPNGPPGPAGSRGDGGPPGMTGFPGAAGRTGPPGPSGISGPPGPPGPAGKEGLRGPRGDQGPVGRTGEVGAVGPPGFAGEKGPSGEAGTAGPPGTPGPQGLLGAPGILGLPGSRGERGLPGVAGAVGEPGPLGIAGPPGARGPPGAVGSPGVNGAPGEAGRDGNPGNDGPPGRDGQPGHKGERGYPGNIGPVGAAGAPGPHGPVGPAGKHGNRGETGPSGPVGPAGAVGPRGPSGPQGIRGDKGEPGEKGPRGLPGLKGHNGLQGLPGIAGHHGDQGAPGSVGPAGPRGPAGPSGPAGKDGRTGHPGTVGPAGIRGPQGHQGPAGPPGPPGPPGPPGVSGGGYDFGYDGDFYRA
# Protocol: as §1
# [6] = Turbidimetry binding analysis of TA and heparin sulfate; conditions: HS 0.24 mg/mL, TA 17 mg/mL, 1:1
# Protocol: as §1
# [7] = Turbidimetry binding analysis of TA and hyaluronic acid; conditions: HA 0.24 mg/mL, TA 17 mg/mL, 1:1
# Protocol: as §1
# [8] = biological target: T2, type I collagen; assay: SPR binding analysis of TA and type I collagen; conditions: surface adsorbed with collagen, TA 2 mg/mL
# Protocol: (§2) For SPR analysis, each solution of elastin, type I collagen (10 μg/mL) and TA (2 mg/mL) was prepared by diluting them in PBS (pH 7.3). All the solutions were filtered with 0.2 μm microfilter (Millipore, USA). Each protein (elastin or type I collagen) was adhered on Biacore gold (Au) sensor chip for 600 seconds. The chip was washed for 10 minutes to eliminate such samples attached weakly thereon. SPR analysis was performed at the flow rate of 10 μl/min using PBS as a flow buffer.
# [9] = biological target: T1, elastin; assay: SPR binding analysis of TA and elastin; conditions: surface adsorbed with elastin, TA 2 mg/mL
# Protocol: as §2
# [10] = biological target: T1, elastin; assay: ITC binding analysis of TA and elastin
# Protocol: Elastin (210 μg/mL) and TA (2.5 mg/mL) solutions were used for ITC analysis. Elastin was placed in a sample cell. The TA solution was placed in a syringe, which was injected to the elastin in the sample cell (250 μl) (50 sequential injections, 5 μl per injection) for titration (with stirring at 350 rpm). Time interval was set at 180 seconds for subsequent injection, and raw data was processed using Microcal Origin (Microcal Software, Northampton, USA).
# [11] = 5 μg i.v., non-treated control 51%
Compound,"infarct size [2, 11]",EDP [3],EDV [3],ESP [3],ESV [3],Ea [3],HR [3],SW [3],Tau [3],other results
"tannylated SP: substance P (SEQ ID NO: 2, RPKPQQFFGLM) mixed with tannic acid solution at [SP]/[TA] ratios 0.5-20",,,,,,,,,,size of complex [1]: up to 1 μm
"bFGF: basic fibroblast growth factor, SEQ ID NO: 1",31%,8.5 ± 0.9 mmHg,365.3 ± 27.5 µL,85.3 ± 1.7 mmHg,254.5 ± 13.8 µL,0.86 ± 0.12 mmHg/μL,316.5 ± 12.9 bpm,1.51 ± 0.14 mmHg · mL · kg,11.7 ± 0.5 ms,infarct size ([2]; 25 μg i.v.): not much different from when 5 μg of bFGF was administered
O=C(OC[C@H]1O[C@@H](OC(=O)c2cc(O)c(O)c(OC(=O)c3cc(O)c(O)c(O)c3)c2)[C@H](OC(=O)c2cc(O)c(O)c(OC(=O)c3cc(O)c(O)c(O)c3)c2)[C@@H](OC(=O)c2cc(O)c(O)c(OC(=O)c3cc(O)c(O)c(O)c3)c2)[C@@H]1OC(=O)c1cc(O)c(O)c(OC(=O)c2cc(O)c(O)c(O)c2)c1)c1cc(O)c(O)c(OC(=O)c2cc(O)c(O)c(O)c2)c1 [tannic acid],,,,,,,,,,"turbidity (A600) of elastin solution after addition of TA [4]: 1.219±0.022; turbidity (A600) of collagen solution after addition of TA [5]: 0.173±0.022; turbidity change of HS solution after addition of TA [6]: no turbidity change was observed; turbidity change of HA solution after addition of TA [7]: no turbidity change was observed; SPR ΔRU value [8]: 793; SPR ΔRU value [9]: 1319; [TA]/[elastin] ratio of first step (TA conjugated with elastin inter-molecularly) ([10]; ITC): up to 20; [TA]/[elastin] ratio of second step (inter-TA/elastin complexes conjugated each other) ([10]; ITC): ≥ 30; ITC thermodynamics of binding between TA and elastin ([10]; elastin 210 μg/mL, TA […]): exothermic interaction"
"tannylated bFGF: bFGF (SEQ ID NO: 1) mixed with TA solution, stoichiometric molar ratio [TA]/[bFGF] of 143",approximately 16%,9.8 ± 1.6 mmHg,295.9 ± 23.3 µL,103.8 ± 4.6 mmHg,133.9 ± 19.5 µL,0.77 ± 0.14 mmHg/μL,322.7 ± 18.0 bpm,3.00 ± 0.53 mmHg · mL · kg,11.7 ± 1.1 ms,"hemodynamic functional values (left ventricular pressure, stroke volume, cardiac output, ventricular contractility index) ([3]; i.v., 28 days after injection, versus sham group): recovered all the hemodynamic functional values"
